Reference: ChEMBL document CHEMBL1811878, “Heteroatom-substituted analogues of orphan nuclear receptor small heterodimer partner ligand and apoptosis inducer (E)-4-[3-(1-Adamantyl)-4-hydroxyphenyl]-3-chlorocinnamic acid” (J Med Chem, 2011)
Calls of active or inactive are those of the source. The calls are words filed in the database; no cut-off is given here.

Columns and labels:
A549 [1] = assay: Induction of apoptosis in human A549 cells assessed as decrease in ATP level at 10 uM after 72 hrs by luminescence assay; format: functional, cell-based
PC-3 [2] = assay: Induction of apoptosis in human PC3 cells assessed as decrease in ATP level at 10 uM after 72 hrs by luminescence assay; format: functional, cell-based
A549 [3] = assay: Induction of apoptosis in human A549 cells assessed as decrease in ATP level after 72 hrs by luminescence assay; format: functional, cell-based
PC-3 [4] = assay: Induction of apoptosis in human PC3 cells assessed as decrease in ATP level after 72 hrs by luminescence assay; format: functional, cell-based
HT-29 [5] = assay: Induction of apoptosis in human HT-29 cells assessed as decrease in ATP level after 72 hrs by luminescence assay; format: functional, cell-based
KG-1 [6] = assay: Growth inhibition in human KG1 cells expressing p53 gene at 1 uM after 48 hrs by MTT assay; format: functional; conditions: KG-1, 48 h, read-out: GI
KG-1 [7] = assay: Growth inhibition in human KG1 cells expressing p53 gene at 5 uM after 48 hrs by MTT assay; format: functional; conditions: KG-1, 48 h, read-out: GI
KG-1 [8] = assay: Induction of apoptosis in human KG1 cells expressing p53 gene assessed as DNA fragmentation at 1 uM after 48 hrs by acridine orange staining method; format: functional
KG-1 [9] = assay: Induction of apoptosis in human KG1 cells assessed as DNA fragmentation at 5 uM after 48 hrs by acridine orange staining method; format: functional
HT-29 [10] = assay: Induction of apoptosis in human HT-29 cells assessed as decrease in ATP level at 10 uM after 72 hrs by luminescence assay; format: functional
[11] = Induction of apoptosis in mouse MMTV-Wnt-1 cells assessed as cell viability after 72 hrs by DAPI staining based cell counting; format: functional
A549 [12] = assay: Induction of apoptosis in human A549 cells assessed as decrease in ATP level at 5 uM after 72 hrs by luminescence assay; format: functional; design: scale not given: the % may be the effect or the level left
PC-3 [13] = assay: Induction of apoptosis in human PC3 cells assessed as decrease in ATP level at 5 uM after 72 hrs by luminescence assay; format: functional; design: scale not given: the % may be the effect or the level left
HT-29 [14] = assay: Induction of apoptosis in human HT-29 cells assessed as decrease in ATP level at 5 uM after 72 hrs by luminescence assay; format: functional; design: scale not given: the % may be the effect or the level left
[15] = Induction of apoptosis in retinoid-resistant p53 null human HL60R cells assessed as DNA fragmentation at 0.1 uM after 24 hrs by acridine orange staining method; format: functional
[16] = Induction of apoptosis in retinoid-resistant p53 null human HL60R cells assessed as DNA fragmentation at 1 uM after 24 hrs by acridine orange staining method; format: functional

SMILES | Activity (A549 [1]) | Activity (PC-3 [2]) | Activity (A549 [3]) | Activity (PC-3 [4]) | Activity (HT-29 [5]) | inhibition of growth at 1 µM (KG-1 [6]) | inhibition of growth at 5 µM (KG-1 [7]) | Activity (KG-1 [8]) | Activity (KG-1 [9]) | Activity (HT-29 [10]) | IC50 [11] | Activity (A549 [12]) | Activity (PC-3 [13]) | Activity (HT-29 [14]) | Activity [15] | Activity [16]
O=C(O)CCN1CCN(c2ccc(O)c(C34CC5CC(CC(C5)C3)C4)c2)CC1 | inactive | Active | Dose-dependent effect | Dose-dependent effect | Dose-dependent effect | -3% | 5% | 1% | 1% | – | – | – | – | – | – | –
O=C(O)CSc1ccc(-c2ccc(O)c(C34CC5CC(CC(C5)C3)C4)c2)c(Cl)c1 | – | – | Dose-dependent effect | Dose-dependent effect | Dose-dependent effect | 7% | 11% | 2% | 5% | – | – | – | – | – | – | –
O=C(O)COc1ccc(-c2ccc(O)c(C34CC5CC(CC(C5)C3)C4)c2)c(Cl)c1 | inactive | – | Dose-dependent effect | Dose-dependent effect | Dose-dependent effect | 34% | 75% | 5% | 25% | – | – | – | – | – | – | –
O=C(O)/C=C/c1cnc(-c2ccc(O)c(C34CC5CC(CC(C5)C3)C4)c2)c(Cl)c1 | Active | Active | Dose-dependent effect | Dose-dependent effect | Dose-dependent effect | 41% | 47% | 56% | 65% | inactive | – | – | – | – | – | –
O=C(O)/C=C/c1cnc(-c2ccc(O)c(C34CC5CC(CC(C5)C3)C4)c2)cn1 | – | Active | Dose-dependent effect | Dose-dependent effect | Dose-dependent effect | 44% | 61% | 39% | 50% | inactive | 316 nM | – | – | – | – | –
O=C(O)CC(=O)N1CCN(c2ccc(O)c(C34CC5CC(CC(C5)C3)C4)c2)C(=O)C1 | – | – | Dose-dependent effect | Dose-dependent effect | Dose-dependent effect | -2% | -5% | 1% | 2% | – | – | – | – | – | – | –
O=C(O)/C=C/C1CCN(c2ccc(O)c(C34CC5CC(CC(C5)C3)C4)c2)CC1 | – | – | Dose-dependent effect | Dose-dependent effect | Dose-dependent effect | 1% | 2% | 1% | 1% | – | – | – | – | – | – | –
O=C(O)/C=C/c1ccc(-c2ccc(O)c(C34CC5CC(CC(C5)C3)C4)c2)nn1 | inactive | Active | Dose-dependent effect | Dose-dependent effect | Dose-dependent effect | 70% | 80% | 48% | 59% | – | – | <=5% | >60% | <=5% | – | –
O=C(O)/C=C/c1ccc(-c2ccc(O)c(C34CC5CC(CC(C5)C3)C4)c2)cn1 | Active | Active | Dose-dependent effect | Dose-dependent effect | Dose-dependent effect | 48% | 58% | 36% | 52% | – | – | 10% | >60% | 10% | – | –
CC(=O)Oc1ccc(-c2ccc(/C=C/C(=O)O)cn2)cc1C12CC3CC(CC(C3)C1)C2 | – | – | Dose-dependent effect | Dose-dependent effect | Dose-dependent effect | 46% | 54% | 52% | 67% | – | – | – | – | – | – | –
CCOC(=O)/C=C/c1ccc(-c2ccc(O)c(C34CC5CC(CC(C5)C3)C4)c2)nc1 | Active | Active | Dose-dependent effect | Dose-dependent effect | Dose-dependent effect | 0% | 45% | 0% | 0% | – | – | – | – | – | – | –
O=C(O)c1ccc2c(Cl)c(-c3ccc(O)c(C45CC6CC(CC(C6)C4)C5)c3)ccc2c1 | – | – | – | – | – | – | – | – | – | – | – | – | – | – | 62% | 94%
O=C(O)CCc1ccc(-c2ccc(O)c(C34CC5CC(CC(C5)C3)C4)c2)c(Cl)c1 | – | – | Dose-dependent effect | Dose-dependent effect | Dose-dependent effect | 0% | 0% | 0% | 1% | – | – | – | – | – | – | –
O=C(O)c1cc2ccc(-c3ccc(O)c(C45CC6CC(CC(C6)C4)C5)c3)cc2[nH]1 | – | – | Dose-dependent effect | Dose-dependent effect | Dose-dependent effect | 1% | 8% | 1% | 3% | – | – | – | – | – | – | –
O=C(O)CNc1cnc(-c2ccc(O)c(C34CC5CC(CC(C5)C3)C4)c2)nc1 | – | – | Dose-dependent effect | Dose-dependent effect | Dose-dependent effect | 0% | 0% | 0% | 0% | – | – | – | – | – | – | –
O=C(O)CS(=O)(=O)c1ccc(-c2ccc(O)c(C34CC5CC(CC(C5)C3)C4)c2)c(Cl)c1 | – | – | Dose-dependent effect | Dose-dependent effect | Dose-dependent effect | 7% | 13% | 2% | 6% | – | – | – | – | – | – | –
O=C(O)CNc1ccc(-c2ccc(O)c(C34CC5CC(CC(C5)C3)C4)c2)c(Cl)c1 | inactive | – | Dose-dependent effect | Dose-dependent effect | Dose-dependent effect | 30% | 45% | 18% | 35% | >=40% | – | – | – | – | – | –
